Drawing on patent publication US20240400546A1, “COMPOUNDS AND USES THEREOF” (JANSSEN PHARMACEUTICA NV, priority 2016, published 2024), this text covers IC50 for 54 molecules.

The first assay addresses T1, SCD1 (Homo sapiens, UniProt O00767).
T1 construct: host or cells: S. cerevisiae ole1Δ strain, plasmid pRS316 with TDH3 promoter and CYC1 terminator
T1 sequence (O00767 1-359): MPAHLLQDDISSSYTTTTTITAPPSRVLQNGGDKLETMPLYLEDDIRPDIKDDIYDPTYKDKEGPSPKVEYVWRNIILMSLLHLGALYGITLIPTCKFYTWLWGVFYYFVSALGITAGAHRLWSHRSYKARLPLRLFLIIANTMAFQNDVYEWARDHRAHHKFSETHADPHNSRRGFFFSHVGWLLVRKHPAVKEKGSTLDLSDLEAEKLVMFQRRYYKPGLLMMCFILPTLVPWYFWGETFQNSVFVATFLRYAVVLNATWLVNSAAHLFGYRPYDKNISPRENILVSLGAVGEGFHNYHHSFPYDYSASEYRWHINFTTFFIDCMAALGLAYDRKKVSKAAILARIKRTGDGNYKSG
The assay can be described thus: Growth inhibition of humanized yeast expressing SCD1 as sole desaturase. The format is cell-based. The following applies: humanized yeast expressing SCD1. The procedure:
Strain ole1Δ (yeast ole1 deletion mutant) was constructed by deleting OLE1 with NAT-MX6 in BY4741, amplifying the deletion cassette from the genomic DNA of the resulting strain with primers flanking the ORF by 1000 bp upstream and downstream, transforming the resulting deletion cassette into W303 pdr1Δ pdr3Δ, and plating transformants on YPD media containing G418 (200 μg/mL) and nourseothricin (100 μg/mL) with 0.01% TWEEN®-20 and 0.5 mM oleic and palmitoleic acids.
The coding sequence of yeast OLE1 was also cloned into this plasmid). These clones were then transformed into the ole1Δ strain and plated on CSM-Ura media (CSM lacking uracil) with 2% glucose (w/v) and independent colonies were isolated and amplified.
All compound profiling experiments were performed using the same basic protocol. Different genetic backgrounds (e.g., gene deletions) or conditions (e.g., addition of oleic and palmitoleic acid) were replaced as indicated below.
Yeast were cultured using standard techniques in complete synthetic media (CSM) and yeast nitrogen base supplemented with 2% (w/v) carbon source (glucose, raffinose, or galactose) to regulate the expression of the toxic disease protein. An initial starter culture was inoculated in 3 mL CSM-Glucose media and incubated overnight in a 30° C. shaker incubator (225 rpm). Saturated morning cultures were then diluted 1:20 in fresh CSM-Raffinose media and grown for 6 h to an OD600 (optical density) of ˜0.4-0.8 at 30° C. with shaking.
Compound administration was performed in two separate steps. First, 15 μL of CSM-Galactose (induces expression of toxic protein) was dispensed into clear 384 well assay plates using a MULTIDROP™ Combi reagent dispenser. […] The cultures described above were then diluted to a 2× concentration (0.03 and 0.08 for alpha-synuclein and ApoE, final OD600 of 0.015 and 0.04) in CSM-Galactose. For wild-type and Ole1/SCD1/SCD5 plasmid-containing strains, the 2× cell density was 0.02. […] For 96-well assays (FIGS. 1A and 1B), compound dilutions in DMSO were generated in 96 well plates and 1 μL was manually pipetted into 96 well clear bottom assay plates.
For experiments using a plasmid-borne copy of Ole1, SCD1, or SCD5 (FIGS. 3B, 6, and 7), media lacking uracil (SX-Ura, where X is glucose, raffinose, or galactose), was used for all steps of the compound profiling protocol to ensure its maintenance throughout the assay.
After yeast delivery, assay plates were incubated under humidified conditions at 30° C. for 24 to 40 h. ApoE4 rescue experiments were stopped at 24 h, aSyn experiments at 40 h, Ole1 at 24 h, and SCD1/SCD5 at 40 h. The growth of yeast was monitored by reading the OD600 of each well using a microplate reader (Perkin Elmer EnVision™).
The IC50 is the point on the concentration scale where inhibition reaches its midpoint. A low value points to greater potency in that assay. `CCN(Cc1nc(-c2ccc(OC)c(OC)c2)no1)C(=O)Cc1ccccc1` [Compound 492] came in with an IC50 of more than 45 µM. On the same count and under the same terms, the value for `CC(C)n1ncc2cc(-c3noc(C4CCN(C(=O)CNC(=O)c5ccccc5)CC4)n3)ccc21` [Compound 228] was 41 µM. Same read-out and setting: with `CCN(Cc1nc(-c2ccc3c(c2)N(CC)C(=O)CO3)no1)C(=O)Cc1cccc2ccccc12` [Compound 494] the figure was more than 45 µM; with `O=C(CNC(=O)c1ccccc1)NCCc1nc(-c2ccccc2)no1` [Compound 485], more than 45 µM.

Still in this assay, the particulars now being: humanized yeast expressing human SCD1.
As for `CC1(CC(=O)N2CCC(c3nc(-c4ccc5cnn(C6COC6)c5c4)no3)CC2)CC1` [Compound 559], the IC50 is more than 45 µM. The molecule `CC(C)n1ncc2ccc(N3CC4(CCN(C(=O)OC5CC5)CC4)C3)cc21` [Compound 594] registered an IC50 of more than 45 µM. Same read-out and setting: the value for `Cc1nn(C)c2cc(-c3noc(C4CCN(C(=O)CC(C)(C)C)CC4)n3)ccc12` [Compound 263] was more than 45 µM; that for `CC(C)N1C(=O)CCc2ccc(-c3noc(C4CCN(C(=O)OC(C)(C)C)CC4)n3)cc21` [Compound 572] was more than 45 µM; that for `CC(C)n1ncc2ccc(-c3noc(N4C[C@H]5CN(C(=O)CC(C)(C)C)C[C@H]5C4)n3)cc21` [Compound 497] was more than 45 µM. Still for that read-out and setting: with `CC(C)n1ncc2ccc(-c3noc(C4CCN(C(=O)[C@H]5CC(=O)N(c6cccc(C#N)c6)C5)CC4)n3)cc21` [Compound 529] the figure was more than 45 µM.

Regarding `CC(C)n1ncc2ccc(-c3noc(C4CCN(C(=O)c5ccc(F)cc5)CC4)n3)cc21` [Compound 544], the IC50 was more than 45 µM. Take `CC(C)n1ncc2ccc(-c3noc(C4CCN(C(=O)c5ccccc5F)CC4)n3)cc21` [Compound 532]: the IC50 is more than 45 µM. The same measure, in the same setting: with `O=C(c1ccccc1)N1CCC(c2nc(-c3ccc4cnn(C5COC5)c4c3)no2)CC1` [Compound 564] the figure was more than 45 µM; with `Cc1nn(C)c2cc(-c3noc(C4CCN(C(=O)CNC(=O)c5ccc(C(F)(F)F)cc5)CC4)n3)ccc12` [Compound 317], more than 45 µM.

As to `CC(C)n1ncc2ccc(-c3noc([C@H]4CC[C@H](NC(=O)OC(C)(C)C)CC4)n3)cc21` [Compound 537], the IC50 was more than 45 µM.

In turn, `CC(C)n1ncc2ccc(-c3noc(C4CCN(C(=O)CNC(=O)c5cccc(C#N)c5)CC4)n3)cc21` [Compound 556] gave an IC50 of more than 45 µM. Same read-out and setting: with `CC(C)n1ncc2ccc(-c3noc(C4CCN(C(=O)c5ccc(Cl)cc5)CC4)n3)cc21` [Compound 363] the figure was more than 45 µM.

`CC(C)n1ncc2ccc(-c3noc(C4CCN(C(=O)c5ccsn5)CC4)n3)cc21` [Compound 588]: the IC50 was more than 45 µM. Same read-out and setting: the value for `CC(C)c1ccc(C(=O)N2CCC(c3nc(N4CC5(COC5)C4)no3)CC2)cc1` [Compound 337] was more than 45 µM. The same measure, in the same setting: with `COc1cc(-c2noc(C3CCN(C(=O)CNC(=O)c4ccccc4)CC3)n2)ccc1OC(F)(F)F` [Compound 253] the figure was more than 45 µM; with `CC(=O)N1CCC2(CC1)CN(c1nc(-c3ccc4cnn(C(C)C)c4c3)no1)C2` [Compound 571], more than 45 µM; with `Cc1nn(C)c2cc(-c3noc(C4CCN(C(=O)CNC(=O)c5cc(Cl)ccc5C(F)(F)F)CC4)n3)ccc12` [Compound 328], more than 45 µM. On the same count and under the same terms, the value for `CC(C)n1ncc2ccc(-c3noc(C4=C(F)CN(C(=O)OC(C)(C)C)CC4)n3)cc21` [Compound 510] was more than 45 µM; that for `CC(C)c1ccc(C(=O)N2CCC(c3nc(C(=O)Nc4cnn(C)c4)no3)CC2)cc1` [Compound 285] was more than 45 µM. With `Cc1nn(C)c2cc(-c3noc(N4CCN(C(=O)c5ccccc5Cl)CC4)n3)ccc12` [Compound 262], the IC50 is more than 45 µM. With `CNC(=O)c1ccc(-c2noc(C3CCN(C(=O)[C@H]4CC(=O)N(c5ccccc5)C4)CC3)n2)cn1` [Compound 252], the IC50 was more than 45 µM. Still for that read-out and setting: with `COCC(=O)N1CCN(c2nc(-c3ccc4cnn(C(C)C)c4c3)no2)CC1` [Compound 595] the figure was more than 45 µM. Still for that read-out and setting: the value for `O=C(c1ccccc1)N1CCC(c2nc(N3CC4(COC4)C3)no2)CC1` [Compound 334] was more than 45 µM; that for `CC(C)n1ncc2ccc(-c3noc(N4CCN(C(=O)c5ccccc5)CC4)n3)cc21` [Compound 362] was more than 45 µM; that for `Cn1ncc2ccc(-c3noc(C4CCN(C(=O)OC(C)(C)C)CC4)n3)cc21` [Compound 359] was more than 45 µM.

`Cc1nn(C)c2cc(-c3noc(C4CCN(C(=O)CC5COC5)CC4)n3)ccc12` [Compound 592] gave an IC50 of more than 45 µM. On the same count and under the same terms, with `CC(C)n1ncc2ccc(-c3noc([C@@H]4[C@@H]5CN(C(=O)OC(C)(C)C)C[C@@H]54)n3)cc21` [Compound 498] the figure was more than 45 µM.

In turn, `CC(C)OC(=O)N1CCC(c2nc(-c3ccc4oc(=O)n(C(C)C)c4c3)no2)CC1` [Compound 507] gave an IC50 of more than 45 µM. On the same count and under the same terms, with `Cc1nn(C2CC2)c2cc(-c3noc(C4CCN(C(=O)CNC(=O)c5ccccc5)CC4)n3)ccc12` [Compound 286] the figure was more than 45 µM. Same read-out and setting: with `Cc1nn(C)c2cc(-c3noc([C@@H]4CCN(C(=O)CNC(=O)c5ccccc5)CC4(F)F)n3)ccc12` [Compound 577] the figure was more than 45 µM; with `CC(C)n1ncc2ccc(-c3nc(C4CCN(C(=O)c5ccccn5)CC4)no3)cc21` [Compound 499], more than 45 µM.

For the molecule `Cc1nn(C(C)C)c2cc(-c3noc(C4CCN(C(=O)OC(C)(C)C)CC4)n3)ccc12` [Compound 343], the IC50 was more than 45 µM. Same read-out and setting: the value for `CC(C)OC(=O)N1CCC(c2nc(-c3ccc4cnn(C(C)C)c4c3)no2)CC1` [Compound 357] was more than 45 µM. Same read-out and setting: with `CC(C)n1ncc2ccc(N3CC4(CCNCC4)C3)cc21` [Compound 538] the figure was more than 45 µM; with `Cc1nn(C)c2cc(-c3noc(C4CCN(C(=O)c5ccccc5Cl)CC4)n3)ccc12` [Compound 288], more than 45 µM. On to `COC(=O)N1CCC(c2nc(-c3ccc4cnn(C(C)C)c4c3)no2)CC1` [Compound 355], for which the IC50 was more than 45 µM. As for `O=C(c1ccccc1Cl)N1CCC(c2nc(-c3ccc4cnn(C5COC5)c4c3)no2)CC1` [Compound 562], the IC50 was more than 45 µM. On the same count and under the same terms, the value for `Cc1noc2cc(-c3noc(C4CCN(C(=O)OC5(C)CC5)CC4)n3)ccc12` [Compound 590] was more than 45 µM; that for `Cc1nn(C)c2cc(-c3noc(C4CCN(C(=O)c5ccccc5)CC4)n3)ccc12` [Compound 280] was more than 45 µM; that for `COC(=O)N1CCC2(CC1)CN(c1nc(-c3ccc4cnn(C(C)C)c4c3)no1)C2` [Compound 570] was more than 45 µM.

In turn, `Cc1nn(C)c2cc(-c3noc(N4CCN(C(=O)c5cc(F)ccc5Cl)CC4)n3)ccc12` [Compound 278] had a concentration for half-maximal inhibition (IC50) of more than 45 µM. The same measure, in the same setting: with `COc1ccc(S(=O)(=O)N2CCC(c3nc(-c4ccc5cnn(C(C)C)c5c4)no3)CC2)c(Br)c1` [Compound 539] the figure was more than 45 µM; with `CC(C)n1ncc2ccc(-c3nc(N4CCN(C(=O)c5ccccc5)CC4)no3)cc21` [Compound 582], more than 45 µM; with `Cc1nn(C)c2cc(-c3nc(C4CCN(C(=O)CNC(=O)c5ccccc5)CC4)no3)ccc12` [Compound 326], more than 45 µM. For `Cn1ncc2ccc(-c3noc(N4CCN(C(=O)OC(C)(C)C)CC4)n3)cc21` [Compound 545], the IC50 was more than 45 µM. The same measure, in the same setting: with `O=C(CC1CC1)N1CCC(c2nc(-c3ccc4cnn(C5COC5)c4c3)no2)CC1` [Compound 558] the figure was more than 45 µM. Molecule `O=C(c1ccccc1)N1CCC(c2nc(N3CC4(CCCO4)C3)no2)CC1` [Compound 335] had an IC50 of more than 45 µM.

`COC(=O)N[C@H]1CC[C@@H](c2nc(-c3ccc4c(C)nn(C)c4c3)no2)CC1` [Compound 550]: the IC50 was more than 45 µM. In the case of `COC(=O)N1CCC(c2nc(-c3ccc4cnn(C(F)F)c4c3)no2)CC1` [Compound 561], the IC50 is more than 45 µM.
